Test results published in US20070141092A1, “BIGUANIDE COMPOSITION AND METHOD OF TREATMENT AND PREVENTION OF VIRAL INFECTIONS” (priority 2005, published 2007).

How the values were obtained:
Assay type in all cases: cell-based
[1] = test system: Adenovirus Type-4; assay: Viral Suspension Assay, Adenovirus Type-4; conditions: both 30 ppm and 99 ppm
Description: (§1) The Viral Suspension Assay was used to evaluate the antiviral properties of Alexidine against Adenovirus Type-4, Adenovirus Type-8 and Adenovirus Type-19 and Cytomegalovirus when exposed in suspension for 1, 2, 5, and 10 minutes. The presence of virus (infectivity) was determined by monitoring the virus specific cytopathic effect (CPE) on an appropriate indicator cell line, rabbit kidney. Results are reported as Percent (%) Reduction in virus titer as compared to the corresponding virus control titer (Table 1). The titer of the virus controls were 7.5 log10 following the one minute exposure time; 7.0 log10 following the two minute exposure time; and 7.75 log10 following both the five and ten minute exposure times.

[2] = test system: Cytomegalovirus; assay: Viral Suspension Assay, Cytomegalovirus; conditions: both 30 ppm and 99 ppm
Description: as §1

[3] = test system: Adenovirus Type-8; assay: Viral Suspension Assay, Adenovirus Type-8; conditions: both 30 ppm and 99 ppm
Description: as §1

[4] = test system: Herpes simplex virus type 1; assay: Viral Suspension Assay, HSV-1 (CPE on rabbit kidney indicator cells)
Description: as §1, with “Herpes simplex virus type 1” for “Adenovirus Type-4, Adenovirus Type-8 and Adenovirus Type-19 and Cytomegalovirus”

## CCCCC(CC)CNC(=N)NC(=N)NCCCCCCNC(=N)NC(=N)NCC(CC)CCCC (centres unmarked) [Alexidine, 1,1′-hexamethylene-bis[5-(2-ethylhexyl)biguanide]]
[1]
  Effectiveness against Adenovirus Type-4 (in words): somewhat effective
[2]
  Effectiveness against Cytomegalovirus (in words): somewhat effective
[3]
  Effectiveness against Adenovirus Type-8 (in words): somewhat effective
[4]; both 30 ppm and 99 ppm
  Effectiveness against herpes simplex type-1 virus (in words): effective agents
[4]; summary statement
  Overall activity against Herpes Simplex-1 (in words): potent antimicrobial agent
